Holding throughout (assay): inhibition of tumour cell growth, NCI panel, 48 h
Assay [1] deals with 786-0.
Assay [2] has as its system SF-295.
In assay [3] the test system is MDA-MB-231.
Assay [4] deals with KM12.
Assay [5] deals with SW-620.
Assay [6] relates to NCI-H226.
For assay [7], the system named is HT-29.
In assay [8] the test system is U-251.
Assay [9] has as its system Malme-3M.
For assay [10], the system named is HCT-15.
In assay [11] the test system is IGROV-1.
Assay [12] relates to SNB-19.
Assay [13] relates to A549.
Assay [14] has as its system SK-MEL-5.
Assay [15] has as its system RXF 393.
In assay [16] the test system is HOP-62.
Assay [17] has as its system OVCAR-4.
The test system of assay [18] is SN12C.
Assay [19] has as its system A498.
The test system of assay [20] is SR.

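Briefly, cells in 96-well plates were exposed to five compound concentrations for 48 h, and endpoints were estimated by linear interpolation. GI50 marks 50% less growth.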 Calls of active or inactive are those of the source. No stated cut-off is given here; in the data, active = GI50 up to about 1.1 µM and inactive = higher.

`Cc1cc(=O)n2nc(CSc3nnc(N)s3)sc2n1`: the GI50 in assay [1], in assay [2], in [3], in assay [4], in assay [5] and in [6] was > 100 µM (inactive) throughout. In addition, the GI50 in [7] was > 100 µM (inactive); in [8] it was > 100 µM (inactive); in assay [9], > 100 µM (inactive); in [10] it was greater than 100 µM; in assay [11] it was > 100 µM (inactive); in [12], > 100 µM (inactive). Besides, the GI50 in [13], in assay [14], in assay [15], in [16], in assay [17] and in assay [18] was > 100 µM (inactive) each time.

Take `CC(=O)OC(C)(C)/C=C/C(=O)[C@](C)(O)[C@H]1[C@H](O)C[C@@]2(C)[C@@H]3CC=C4[C@@H](C[C@H](O)[C@H](O)C4(C)C)[C@]3(C)C(=O)C[C@]12C`: the GI50 is 0.24 µM (active) in [1]; 0.973 µM (active) in [2]; 0.853 µM (active) in [19]; 0.467 µM (active) in assay [4]; 0.274 µM (active) in [5]; 0.984 µM (active) in [6]. Besides, the GI50 was 0.302 µM (active) in [7]; 0.224 µM (active) in assay [20]; 0.687 µM (active) in assay [8]; 1.11 µM (active) in [9]; 0.294 µM in assay [10]; 0.925 µM (active) in [11]. Further, the GI50 in [12] was 0.7 µM (active); in assay [13], 0.822 µM (active); in assay [14], 0.701 µM (active); in assay [15] it was 0.383 µM (active); in [16], 1.51 µM (inactive); in assay [17] it was 0.331 µM (active). Further, the GI50 in assay [18] is 0.401 µM (active).

For the molecule `C/C(O)=C1\CC2CN3CCc4c([nH]c5ccccc45)C3CC2CC1=O` (stereo unspecified), the GI50 in [1] was 38 µM (inactive); in [2], > 100 µM (inactive); in assay [19] it was > 100 µM (inactive); in assay [4] it was > 100 µM (inactive); in assay [5], 38.5 µM (inactive); in assay [6] it was 54.1 µM (inactive). The GI50 in assay [7] is 67.1 µM (inactive); in assay [20] it was 23.4 µM (inactive); in assay [8], > 100 µM (inactive); in assay [9], > 100 µM (inactive); in assay [10], 45.4 µM; in assay [11], > 100 µM (inactive). Moreover, the GI50 in [12] is > 100 µM (inactive); in assay [13], > 100 µM (inactive); in [14] it was 55.2 µM (inactive); in [15], 20.9 µM (inactive); in assay [16] it was > 100 µM (inactive); in [17], 46 µM (inactive). For the same molecule, the GI50 in [18] was 71.1 µM (inactive).

In the case of `CC(C)(C)N/N=C(\C(=O)Nc1nnc(S)[nH]1)C1C(=O)Nc2ccccc2[S+]1[O-]` (stereo unspecified), the GI50 in [1], in [2], in assay [19], in [4], in assay [5] and in assay [6] was > 100 µM (inactive) throughout. For the same molecule, the GI50 in assay [7] was > 100 µM (inactive); in [20], > 100 µM (inactive); in [8], > 100 µM (inactive); in [9], > 100 µM (inactive); in assay [10], greater than 100 µM; in assay [11] it was > 100 µM (inactive). Also, the GI50 in [12], in assay [13], in assay [14], in [15], in assay [16] and in [17] was > 100 µM (inactive) throughout. The GI50 in assay [18] was > 100 µM (inactive).

As to `COc1ccc(C2S/C(=C\c3ccccc3)C(=O)N2NC(=O)Cc2ccccc2)cc1` (stereo unspecified), the GI50 in [1], in assay [2], in assay [19], in assay [4], in assay [5] and in assay [6] was > 100 µM (inactive) in each case. In addition, the GI50 was > 100 µM (inactive) in assay [7]; 68.5 µM (inactive) in assay [20]; > 100 µM (inactive) in assay [8]; > 100 µM (inactive) in assay [9]; 40.7 µM in [10]; > 100 µM (inactive) in assay [11]. The GI50 in assay [13], in assay [14], in assay [15], in [16], in assay [17] and in assay [18] was > 100 µM (inactive) each time.

As to `COC(=O)[C@H]1COC(=S)N1C(=O)[C@@H](C)[C@H](O)C(C)C`, the GI50 is > 100 µM (inactive) in assay [1]; > 100 µM (inactive) in [2]; > 100 µM (inactive) in assay [19]; > 100 µM (inactive) in assay [4]; > 100 µM (inactive) in assay [5]; 12.8 µM (inactive) in assay [6]. Also, the GI50 is > 100 µM (inactive) in assay [7]; > 100 µM (inactive) in assay [20]; > 100 µM (inactive) in assay [8]; > 100 µM (inactive) in assay [9]; greater than 100 µM in [10]; > 100 µM (inactive) in assay [11]. Further, the GI50 in assay [12], in [13], in [14], in [15], in assay [16] and in assay [17] was > 100 µM (inactive) throughout. Further, the GI50 in [18] was > 100 µM (inactive).

For the molecule `O=C(CCc1nnc(S)[nH]1)Nc1cc(Cl)ccc1Cl`, the GI50 in assay [1], in assay [2], in assay [19], in [4], in [5] and in assay [6] was > 100 µM (inactive) throughout. In addition, the GI50 was > 100 µM (inactive) in [7]; > 100 µM (inactive) in assay [20]; > 100 µM (inactive) in assay [8]; > 100 µM (inactive) in [9]; greater than 100 µM in assay [10]; > 100 µM (inactive) in assay [11]. The GI50 in [12], in assay [13], in assay [14], in assay [16], in [17] and in assay [18] was > 100 µM (inactive) each time.

For `O=C(CC1Sc2ccccc2NC1=O)Nc1cc(Cl)ccc1Cl` (stereo unspecified), the GI50 in assay [1], in assay [2], in assay [19], in assay [5], in [6] and in assay [7] was > 100 µM (inactive) throughout. The GI50 in assay [20] is 27.3 µM (inactive); in assay [8] it was 49.9 µM (inactive); in assay [9], > 100 µM (inactive); in [10], greater than 100 µM; in assay [11] it was > 100 µM (inactive); in assay [12] it was > 100 µM (inactive). Besides, the GI50 in assay [13], in [14], in assay [15], in assay [17] and in [18] was > 100 µM (inactive) each time.

With `COC(=O)C(c1n[nH]c2ccccc12)C(C(=O)OC)c1n[nH]c2ccccc12` (stereo unspecified), the GI50 in assay [1] is 44.9 µM (inactive); in [2], > 100 µM (inactive); in assay [19], > 100 µM (inactive); in assay [4], > 100 µM (inactive); in [5] it was 18.3 µM (inactive); in [6], > 100 µM (inactive). In addition, the GI50 in assay [7] was 64.4 µM (inactive); in assay [20], 30.4 µM (inactive); in assay [8], > 100 µM (inactive); in assay [9], 42.7 µM (inactive); in [10], greater than 100 µM; in [11] it was > 100 µM (inactive). In addition, the GI50 in [12] is > 100 µM (inactive); in assay [13] it was > 100 µM (inactive); in assay [15], 24.9 µM (inactive); in assay [16], > 100 µM (inactive); in [17], 18.8 µM (inactive); in [18], 31.1 µM (inactive).

As for `Nc1ccc(C(c2ccccc2)(c2ccccc2)c2ccccc2)cc1`, the GI50 is 48.2 µM (inactive) in assay [1]; 12.3 µM (inactive) in assay [2]; > 100 µM (inactive) in assay [19]; 55.6 µM (inactive) in [4]; > 100 µM (inactive) in assay [5]; 45.5 µM (inactive) in assay [7]. Further, the GI50 is 36.6 µM (inactive) in assay [20]; 29.7 µM (inactive) in assay [8]; 30.8 µM (inactive) in assay [9]; 78.7 µM in assay [10]; 52.1 µM (inactive) in assay [11]; > 100 µM (inactive) in assay [13]. Moreover, the GI50 in assay [14] is 42.2 µM (inactive); in [15] it was 10.3 µM (inactive); in [16] it was 27.9 µM (inactive); in assay [17] it was 24.7 µM (inactive); in assay [18], 66.5 µM (inactive).

As for `ClCCNCCNCCCl.ClCCNCCNCCCl.[O-][Cl+3]([O-])([O-])O`, the GI50 in assay [1] is 18.8 µM (inactive); in assay [2] it was 54.6 µM (inactive); in [19], 57.1 µM (inactive); in assay [4], > 100 µM (inactive); in assay [5], 21 µM (inactive); in assay [6], > 100 µM (inactive). Moreover, the GI50 was > 100 µM (inactive) in assay [7]; 23.1 µM (inactive) in [20]; 25.4 µM (inactive) in [8]; 19.5 µM (inactive) in assay [9]; 55.8 µM in assay [10]; 22.5 µM (inactive) in assay [11]. For the same molecule, the GI50 in assay [12] was > 100 µM (inactive); in [13], 73.5 µM (inactive); in assay [14], 23 µM (inactive); in assay [15] it was 40.7 µM (inactive); in assay [16], > 100 µM (inactive); in assay [17] it was 22.3 µM (inactive). In [18], the GI50 is 61.2 µM (inactive).

The record behind these values is ChEMBL document CHEMBL1201862, “PubChem BioAssay data set” (2004).
